Here are results for 14 compounds from patent publication US8853193B2, “Thienopyrimidines containing a substituted alkyl group for pharmaceutical compositions” (Boehringer Ingelheim International GmbH, priority 2010, dated 2014).

Where a name gives a salt, the structure may show the parent alone.

In the assay the target is human Mnk2a (Homo sapiens (Human), UniProt Q9HBH9). The experiment in a line: Mnk2a in vitro kinase assay (indirect competitive fluorescence polarization). The class given is biochemical. The settings on record: pre-activated GST-Mnk2a 2.5 nM, 20 μM ATP, 30 μM substrate peptide; read-out: MNK2 IC50. The procedure, abridged: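 GST-tagged human Mnk2a expressed in E. coli and glutathione-purified, then activated at 2.5 μM with 150 nM pre-activated NHis-ERK2 and 50 μM ATP in HEPES/KOH pH 7.4, MgCl2, DTT, Brij 78 for 45 min at 30 °C. Phospho-peptide product read by indirect competitive fluorescence polarization against fluorophore-labelled phospho-peptide bound to phospho-specific antibody.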
human Mnk2a, sequence (Q9HBH9 whole entry): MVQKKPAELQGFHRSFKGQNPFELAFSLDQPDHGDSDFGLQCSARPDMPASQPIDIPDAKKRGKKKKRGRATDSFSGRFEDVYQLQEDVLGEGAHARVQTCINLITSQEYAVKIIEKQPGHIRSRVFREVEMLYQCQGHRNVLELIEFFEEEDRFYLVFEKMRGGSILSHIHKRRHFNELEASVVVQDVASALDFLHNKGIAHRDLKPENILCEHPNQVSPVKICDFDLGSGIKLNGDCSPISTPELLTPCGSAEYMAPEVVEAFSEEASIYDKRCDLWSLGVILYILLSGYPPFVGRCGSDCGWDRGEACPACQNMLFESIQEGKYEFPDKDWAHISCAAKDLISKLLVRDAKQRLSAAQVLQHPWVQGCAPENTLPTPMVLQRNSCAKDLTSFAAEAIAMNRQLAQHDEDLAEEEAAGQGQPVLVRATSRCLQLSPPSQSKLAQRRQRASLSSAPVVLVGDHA
Consider `Cc1c(C(=O)NCC2CNCCO2)sc2ncnc(Nc3cccnc3OC(C)C)c12` (centres unmarked) [Compound 36-5, 4-(2-Isopropoxypyridin-3-ylamino)-5-methyl-N-(morpholin-2ylmethyl) thieno[2,3-d]pyrimidine-6-carboxamide], for which the IC50 turned out to be 25 nM. For `Cc1c(C(=O)NCCCN2CCCC2)sc2ncnc(Nc3ccc(F)cc3OC(CF)CF)c12` [Compound 23-10, 4-(2-(1,3-difluoro-propan-2-yloxy)-4-fluorophenylamino)-5-methyl-N-(3-(pyrrolidin-1-yl)propyl)thieno[2,3-d]pyrimidine-6-carboxamide], the IC50 was 7 nM. Regarding `CNC(=O)c1sc2ncnc(Nc3ccc(F)cc3OC(CF)CF)c2c1C` [Compound 23-4, 4-(2-(1,3-difluoro-propan-2-yloxy)-4-fluorophenylamino)-N,5-dimethylthieno [2,3d]pyrimidine-6-carboxamide], the half-inhibitory concentration (IC50) is 8 nM. In the case of `COC(=O)c1sc2ncnc(Nc3ccc(F)cc3OC(C)C(=O)NCCCN)c2c1C` (centres unmarked) [Compound 56, 4-{2-[1-(3-Amino-propylcarbamoyl)-ethoxy]-4-fluoro-phenylamino}-5-methyl-thieno[2,3-d]pyrimidine-6-carboxylic acid methyl ester], the IC50 was 314 nM. As for `COC(=O)c1sc2ncnc(Nc3ccc(F)cc3OC(C)CNC(C)=O)c2c1C` (centres unmarked) [Compound 3-4, Methyl 4-(2-(1-acet-amidopropan-2-yloxy)-4-fluorophenylamino)-5-methylthieno[2,3-d]pyrimidine-6-carboxylate], the half-maximal inhibitory concentration (IC50) turned out to be 261 nM. Take `Cc1c(C(=O)O)sc2ncnc(Nc3ccc(F)cc3OCC3CC3(F)F)c12` (centres unmarked) [Compound 32-5]: the half-inhibitory concentration (IC50) came to 8 nM.

As for `Cc1c(C(=O)NCCCN(C)C)sc2ncnc(Nc3ccc(F)cc3OCC(F)(F)F)c12` [Compound 32-16], the half-maximal inhibitory concentration (IC50) is 66 nM. Regarding `Cc1c(C(=O)NS(C)(=O)=O)sc2ncnc(Nc3ccc(F)cc3OC(CF)CF)c12` [Compound 24, 4-(2-(1,3-Difluoropropan-2-yloxy)-4-fluorophenylamino)-5-methyl-N-(methylsulfonyl)thieno[2,3-d]pyrimidine-6-carboxamide], the IC50 amounted to 7 nM. `Cc1c(C(=O)NCCO)sc2ncnc(Nc3cccnc3OCC(C)F)c12` (centres unmarked) [Compound 27-3, 4-(2-(2-Fluoropropoxy)pyridin-3-ylamino)-N-(2-hydroxyethyl)-5-methyl-thieno[2,3-d]pyrimidine-6-carboxamide]: the concentration for half-maximal inhibition (IC50) stood at 58 nM. Then `CCNC(=O)C(C)Oc1cc(F)ccc1Nc1ncnc2sc(C(=O)O)c(C)c12` (centres unmarked) [Compound 39, 4-[2-(1-Ethylcarbamoyl-ethoxy)-4-fluoro-phenylamino]-5-methyl-thieno[2,3-d]pyrimidine-6-carboxylic acid], with 19 nM; and `Cc1c(C(N)=O)sc2ncnc(Nc3ccc(F)cc3OC(C)C(C)(C)O)c12` (centres unmarked) [Compound 60, 4-[4-Fluoro-2-(2-hydroxy-1,2-dimethyl-propoxy)-phenylamino]-5-methyl-thieno[2,3-d]pyrimidine-6-carboxylic acid amide], with 37 nM.

In the case of `Cc1c(C(=O)NCCCN(C)C)sc2ncnc(Nc3cccnc3OCCO)c12` [Compound 29-4, N-(3-(dimethyl-amino)propyl)-4-(2-(2-hydroxy-ethoxy)pyridin-3-ylamino)-5-methylthieno[2,3-d]pyrimidine-6-carboxamide hydrochloride], the half-maximal inhibitory concentration (IC50) came to 288 nM. `Cc1c(C(=O)NCCCN(C)C)sc2ncnc(Nc3cccnc3OCC(F)F)c12` [Compound 30-5, 4-(2-(2,2-difluoroethoxy)-pyridin-3-ylamino)-N-(3-(dimethyl-amino)propyl)-5-methyl-thieno[2,3-d]pyrimidine-6-carbox-amide hydro-chloride]: the IC50 was 57 nM. As for `Cc1c(C(N)=O)sc2ncnc(Nc3cccnc3OC(C)CCN)c12` (centres unmarked) [Compound 16-4], the IC50 was 44 nM.
